# Test system: Two-spotted spider mite (Tetranychus urticae)
# Test: Acaricidal action on two-spotted spider mite (kidney bean leaf disk spray)
# Assay type: in vivo
# Conditions: 500 ppm, adult females, 25° C., two days after treatment
# Procedure: Acaricidal Action on Two-Spotted Spider Mite (Tetranychus urticae)
# Leaf disk having a diameter of 2 cm was prepared by leaves of kidney bean, and the leaf disk was placed on the wetted filter paper. Adult hens of two-spotted spider mite were inoculated on the wetted filter paper, and then 50 ml of an agrochemical dispersion, prepared by diluting a formulation containing the benzimidazole compound represented by the general formula (1) of the present invention or salt thereof as an active ingredient to adjust each of the concentrations to 500 ppm, was sprayed on turntable uniformly. After the spraying, it was allowed to stand in a thermostatic chamber at 25° C. Two days after the treatment of an agrochemical dispersion, the dead mites were counted, the corrected mortality rate was calculated according to the formula shown below, and the acaricidal efficacy was evaluated according to the criteria of Test Example 2. This test was conducted in duplicate using 10 adult hens of two-spotted spider per plot. Corrected mortality(%)=(Number of dead mites in a non-treatment plot−Number of dead mites in a treatment plot)/(Number of dead mites in a non-treatment plot)×100 [Expression 4]
row,Compound,"acaricidal efficacy (corrected mortality rate), activity level"
1,CCS(=O)(=O)n1c(-n2cc(CCC3CC3)c(C(F)(F)F)n2)nc2ccccc21 [Compound 2-126],D or higher
2,CCOC(=O)/C=C/c1nn(-c2nc3ccccc3n2S(=O)(=O)CC)cc1C(=O)OCC [Compound 2-143],D or higher
3,CCS(=O)(=O)n1c(-n2ccc(OCCCC(=O)OC(C)(C)C)n2)nc2ccccc21 [Compound 2-103],D or higher
4,CCOC(=O)c1cn(-c2nc3ccccc3n2S(=O)(=O)CC)nc1/C=C/C1CC1 [Compound 2-80],D or higher
5,CCS(=O)(=O)n1c(-n2cc(C(=O)OC)c(C(C)(C)C)n2)nc2ccccc21 [Compound 2-79],D or higher
6,CCS(=O)(=O)n1c(-n2cc(C#N)c(C(=O)OC(C)(C)C)n2)nc2ccccc21 [Compound 2-108],D or higher
7,CCS(=O)(=O)n1c(-n2cc(C(=O)OC(C)(C)C)c(Br)n2)nc2ccccc21 [Compound 2-48],D or higher
8,CCS(=O)(=O)n1c(-n2cc(C(=O)OC(C)(C)C)c(Cl)n2)nc2ccccc21 [Compound 2-47],D or higher
9,CCS(=O)(=O)n1c(-n2cc(CCc3ccc(F)cc3)c(C(F)(F)F)n2)nc2ccccc21 [Compound 2-5],D or higher
10,CCS(=O)(=O)n1c(-n2cc(CCc3ccccc3)c(C#N)n2)nc2ccccc21 [Compound 2-109],D or higher
11,CCS(=O)(=O)n1c(-n2cc(S(=O)(=O)N(C)C)c(C(F)(F)F)n2)nc2ccccc21 [Compound 2-120],D or higher
12,CCS(=O)(=O)n1c(-n2cc(C(=O)OC(C)(C)C)c(C(C)C)n2)nc2ccccc21 [Compound 2-57],D or higher
13,CCS(=O)(=O)n1c(-n2cnc(SC)n2)nc2ccccc21 [Compound 3-4],D or higher
14,CCS(=O)(=O)n1c(-n2nc(C(F)(F)F)c(Br)c2C)nc2ccccc21 [Compound 2-18],D or higher
15,CCS(=O)(=O)n1c(-n2cc(C(=O)OC(C)(C)C)c(CCC3CC3)n2)nc2ccccc21 [Compound 2-84],D or higher
16,CCS(=O)(=O)n1c(-n2cc(C(=O)OC(C)(C)C)c(CC(C)C)n2)nc2ccccc21 [Compound 2-87],D or higher
17,CCS(=O)(=O)n1c(-n2cc(C(=O)CC(C)C)c(CC(C)C)n2)nc2ccccc21 [Compound 2-142],D or higher
18,CCS(=O)(=O)n1c(-n2cc(C(=O)N(C)C(C)(C)C)c(C(=O)N(C)C(C)(C)C)n2)nc2ccccc21 [Compound 2-98],D or higher
19,CCS(=O)(=O)n1c(-n2cnc(C(F)(F)C(F)(F)F)n2)nc2ccccc21 [Compound 3-2],D or higher

row,Compound,"acaricidal efficacy (corrected mortality rate), activity level"
1,CCS(=O)(=O)n1c(-n2cc(CCCOC(=O)C(C)(C)C)c(C(F)(F)F)n2)nc2ccccc21 [Compound 2-134],D or higher
2,CCS(=O)(=O)n1c(-n2cnc(CCc3ccc(Br)cc3)c2)nc2ccccc21 [Compound 1-14],D or higher
3,CCS(=O)(=O)n1c(-n2cc(C(=O)OC(C)(C)C)c(CCc3ccccc3)n2)nc2ccccc21 [Compound 2-89],D or higher
4,CCS(=O)(=O)n1c(-n2cc(/C=C/C(=O)OC(C(F)(F)F)C(F)(F)F)c(C(F)(F)F)n2)nc2ccccc21 [Compound 2-112],D or higher
5,CCS(=O)(=O)n1c(-n2cnc(C(=O)OC(C)(C)C)c2)nc2ccccc21 [Compound 1-33],D or higher
6,CCCOc1nn(-c2nc3ccccc3n2S(=O)(=O)CC)cc1C(=O)OC(C)(C)C [Compound 2-74],D or higher
7,CCS(=O)(=O)n1c(-n2cc(C(=O)NCC(F)(F)F)c(C(C)(C)C)n2)nc2ccccc21 [Compound 2-94],D or higher
8,CCCCCc1nn(-c2nc3ccccc3n2S(=O)(=O)CC)cc1C(=O)OC(C)(C)C [Compound 2-85],D or higher
9,CCOC(=O)c1cn(-c2nc3ccccc3n2S(=O)(=O)CC)nc1I [Compound 2-81],D or higher
10,CCS(=O)(=O)n1c(-n2cc(C(=O)NCC(F)(F)F)c(C(=O)NCC(F)(F)F)n2)nc2ccccc21 [Compound 2-95],D or higher
11,CCS(=O)(=O)n1c(-n2cnc(C(F)(F)F)c2)nc2ccccc21 [Compound 1-21],D or higher
12,CCS(=O)(=O)n1c(-n2cc(C(=O)OC(C)(C)C)c(I)n2)nc2ccccc21 [Compound 2-82],D or higher
13,CCS(=O)(=O)n1c(-n2cc(C(=O)OC(C)(C)C)c(C3CC3)n2)nc2ccccc21 [Compound 2-50],D or higher
14,CCS(=O)(=O)n1c(-n2cc(I)c(C(=O)OC(C)(C)C)n2)nc2ccccc21 [Compound 2-104],D or higher
15,CCS(=O)(=O)n1c(-n2cc(/C=C/C(=O)NCC(F)(F)F)c(C(F)(F)F)n2)nc2ccccc21 [Compound 2-117],D or higher
16,CCS(=O)(=O)n1c(-n2cc(C(=O)OC(C)(C)C)c(C(C)(C)C)n2)nc2ccccc21 [Compound 2-58],D or higher
17,CCS(=O)(=O)n1c(-n2cc(SCC(F)(F)C(F)(F)F)cn2)nc2ccccc21 [Compound 2-141],D or higher
18,CCS(=O)(=O)n1c(-n2cc(CCC(C)(C)C)c(C(F)(F)F)n2)nc2ccccc21 [Compound 2-127],D or higher
19,CCS(=O)(=O)n1c(-n2cc(C(=O)OC(C)(C)C)c(OCC(F)(F)C(F)(F)F)n2)nc2ccccc21 [Compound 2-52],D or higher

row,Compound,"acaricidal efficacy (corrected mortality rate), activity level"
1,CCS(=O)(=O)n1c(-n2cc(C(C)=O)c(C)n2)nc2ccccc21 [Compound 2-119],D or higher
2,CCS(=O)(=O)n1c(-n2cc(C(=O)OC(C)(C)C)c(OCC(F)F)n2)nc2ccccc21 [Compound 2-77],D or higher
3,CCS(=O)(=O)n1c(-n2cc(CCC(=O)OC(C)(C)C)c(C(=O)OC(C)(C)C)n2)nc2ccccc21 [Compound 2-135],D or higher
4,CCS(=O)(=O)n1c(-n2cc(C#Cc3ccccc3)c(OCC(F)(F)F)n2)nc2ccccc21 [Compound 2-100],D or higher
5,CCCCCCCCc1cn(-c2nc3ccccc3n2S(C)(=O)=O)cn1 [Compound 1-3],D or higher
6,CCS(=O)(=O)n1c(-n2cnc(COc3ccc(OC(F)(F)F)cc3)c2)nc2ccccc21 [Compound 1-17],D or higher
7,CCS(=O)(=O)n1c(-n2cc(C(=O)OC(C)(C)C)c(/C=C/C3CC3)n2)nc2ccccc21 [Compound 2-83],D or higher
8,CCS(=O)(=O)n1c(-n2cc(C(=O)OC)c(C(=O)OC)c2)nc2ccccc21 [Compound 7-6],D or higher
9,CCS(=O)(=O)n1c(-n2cnc(C(F)(F)C(F)(F)C(F)(F)C(F)(F)C(F)(F)C(F)(F)F)c2)nc2ccccc21 [Compound 1-28],D or higher
10,CCS(=O)(=O)n1c(-n2cc(Cc3ccccc3)c(C(F)(F)F)n2)nc2ccccc21 [Compound 2-22],D or higher
11,CCS(=O)(=O)n1c(-n2cc(CCc3ccccc3)c(OCC(F)(F)F)n2)nc2ccccc21 [Compound 2-101],D or higher
12,CCOc1nn(-c2nc3ccccc3n2S(=O)(=O)CC)cc1C(=O)OC(C)(C)C [Compound 2-73],D or higher
13,CCCCCCCCc1cnn(-c2nc3ccccc3n2S(=O)(=O)CC)c1 [Compound 2-2],D or higher
14,CCS(=O)(=O)n1c(-n2cc(C#CC(C)(C)C)c(C(F)(F)F)n2)nc2ccccc21 [Compound 2-124],D or higher
15,CCS(=O)(=O)n1c(-n2cnc(COc3ccc(C(F)(F)F)cc3)c2)nc2ccccc21 [Compound 1-16],D or higher
16,CCS(=O)(=O)n1c(-n2cc(C(=O)OC(C)(C)C)c(C(F)(F)C(F)(F)F)n2)nc2ccccc21 [Compound 2-90],D or higher
17,CCS(=O)(=O)n1c(-n2cc(C#CCOC)c(C(F)(F)F)n2)nc2ccccc21 [Compound 2-128],D or higher
18,CCS(=O)(=O)n1c(-n2cc(/C=C/C(=O)OCC(C)(C)C)c(C(F)(F)F)n2)nc2ccccc21 [Compound 2-113],D or higher
19,CCS(=O)(=O)n1c(-n2cc(C#N)c(C(C)(C)C)n2)nc2ccccc21 [Compound 2-99],D or higher

# — patent US12389911B2, “Benzimidazole compound or salt thereof, agricultural and horticultural insecticidal and acaricidal agent containing said compound, and method for using same” (NIHON NOHYAKU CO., LTD., priority 2019, dated 2025)
